Results on two molecules are retold here after article PMC5437114, “Exploring Pharmacological Mechanisms of Lavender (Lavandula angustifolia) Essential Oil on Central Nervous System Targets” (Frontiers in Pharmacology, 2017).

The assay has as its target T1, serotonin transporter (SERT) (Rattus norvegicus, UniProt P31652).
T1 construct: 225 μl of rat cortex suspension; from tissue; host or cells: rat (Sprague Dawley) brain cortex homogenate
Description: Serotonin transporter assay ([3H]-citalopram binding assay). Particulars: rat cortex.

T1 sequence (P31652 whole entry): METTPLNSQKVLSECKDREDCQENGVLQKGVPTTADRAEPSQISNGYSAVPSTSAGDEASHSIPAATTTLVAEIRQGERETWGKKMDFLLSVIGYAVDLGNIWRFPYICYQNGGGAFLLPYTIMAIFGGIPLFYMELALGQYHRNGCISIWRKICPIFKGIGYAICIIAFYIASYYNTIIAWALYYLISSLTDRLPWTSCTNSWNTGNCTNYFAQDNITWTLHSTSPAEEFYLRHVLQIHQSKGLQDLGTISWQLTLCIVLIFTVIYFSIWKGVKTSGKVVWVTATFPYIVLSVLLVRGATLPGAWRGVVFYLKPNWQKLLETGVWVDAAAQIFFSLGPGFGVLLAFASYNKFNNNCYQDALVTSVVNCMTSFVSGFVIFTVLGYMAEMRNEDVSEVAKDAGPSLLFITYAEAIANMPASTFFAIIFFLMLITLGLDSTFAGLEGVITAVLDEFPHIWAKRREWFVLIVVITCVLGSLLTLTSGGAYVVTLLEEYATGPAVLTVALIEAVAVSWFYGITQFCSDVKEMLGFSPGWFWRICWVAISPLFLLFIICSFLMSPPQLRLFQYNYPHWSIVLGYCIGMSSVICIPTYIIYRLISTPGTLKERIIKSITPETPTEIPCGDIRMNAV

For the molecule `C=CC(C)(O)CCC=C(C)C` (centres unmarked) [Linalool, linalool], the “Activity in the SERT assay (displacement of 3H-citalopram), in words” value is listed as “effect was also detected”.
Regarding `C=CC(C)(CCC=C(C)C)OC(C)=O` (centres unmarked) [Linalyl acetate, linalyl acetate], the “Activity in the SERT assay (displacement of 3H-citalopram), in words” value was “did not show affinity”.
